The subject of series [1] is Staphylococcus aureus. Nature of the series: Antibacterial activity against Staphylococcus aureus ATCC 19636 infected ICR mouse septicemia model assessed as increase in animal's survival rate administered iv at 1 hr post-infection and measured after 48 hrs. The class given is functional.
Series [2] is described as follows: AUC (0 to 24 hrs) in Sprague-Dawley rat at 10 mg/kg, iv by HLPC-MS/MS analysis. The class given is ADME, organism-based. Details: time < 24 hr, dose 10 mg/kg, route iv. To be noted: in vivo.
Series [3] has as its system Staphylococcus aureus. Kind of series: Antibacterial activity against Staphylococcus aureus ATCC 19636 infected Sprague-Dawley rat peritonitis model assessed as increase in animal's survival rate administered iv at 1 hr post-infection and measured after 48 hrs. It counts as functional.
Series [4] is described as follows: Aqueous solubility of the compound in deionized water at 25 degC. It counts as physicochemical.

≈ marks a conversion by molar mass, not a printed value.

As for `O=C1C=CN(c2c(F)cc(N3C[C@H](CNc4ccon4)OC3=O)c(F)c2F)CC1` [CONTEZOLID], the ED50 came to 4.7 mg/kg with Staphylococcus aureus [1] and 10.3 mg/kg in the series on Staphylococcus aureus [3]. This molecule came in with an AUC(0-t) at 24 h in series [2] of 25400 ng·h/mL. This molecule also had a solubility in series [4] of 200 µg/mL (≈ 490 µM).

As a reminder, the ED50 is the dose that gives a 50% effect, or the effect in half of the subjects. As usually defined, the AUC(0-t) is the area under the concentration-time curve up to a stated or last time point. Low readings indicate less exposure, high ones more exposure. Broadly, the solubility is the concentration that dissolves in the medium under given conditions. A lower solubility goes with little dissolved substance.

Source of the values: ChEMBL document CHEMBL5120941 (ACS Med Chem Lett, 2022).
